Data reported in PubChem BioAssay AID1963873 (Molecular Pharmacology Branch, DTP, NCI, 2024).
Several values for one entry are separate records, joined by “and”; a condition that tells them apart may be missing. Identical values can stand only once.

Tested on: 276233-004-R-J1-PDC KRAS spheroids with HUVEC/MSC, viability
Test: Anticancer human tumor 276233-004-R-J1-PDC patient-derived colon adenocarcinoma cell line growth inhibition [KRAS2]
Conditions: for viability, T/C: stronger effect = lower value
Procedure, shortened: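 Combination screen of spheroid viability in tumor-cell co-cultures with endothelial (HUVEC) and mesenchymal stem cell stroma. Each agent was tested in half-log dilutions, topping at clinical Cmax or at 10 microM without a known Cmax.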

[1] = curve of first compound, second compound 0.1 µM
[2] = curve of first compound, second compound 0.316 µM
[3] = curve of first compound, second compound 1 µM
[4] = curve of first compound, second compound 3.16 µM
[5] = second compound 0.1 µM, first compound 0.0316 µM
[6] = second compound 0.1 µM, first compound 0.1 µM
[7] = second compound 0.1 µM, first compound 0.316 µM
[8] = second compound 0.1 µM, first compound 1 µM
[9] = second compound 0.1 µM, first compound 3.16 µM
[10] = second compound 0.1 µM, first compound 10 µM
[11] = second compound 0.316 µM, first compound 0.0316 µM
[12] = second compound 0.316 µM, first compound 0.1 µM
[13] = second compound 0.316 µM, first compound 0.316 µM
[14] = second compound 0.316 µM, first compound 1 µM
[15] = second compound 0.316 µM, first compound 3.16 µM
[16] = second compound 0.316 µM, first compound 10 µM
[17] = second compound 1 µM, first compound 0.0316 µM
[18] = second compound 1 µM, first compound 0.1 µM
[19] = second compound 1 µM, first compound 0.316 µM
[20] = second compound 1 µM, first compound 1 µM
[21] = second compound 1 µM, first compound 3.16 µM
[22] = second compound 1 µM, first compound 10 µM
[23] = second compound 3.16 µM, first compound 0.0316 µM
[24] = second compound 3.16 µM, first compound 0.1 µM
[25] = second compound 3.16 µM, first compound 0.316 µM
[26] = second compound 3.16 µM, first compound 1 µM
[27] = second compound 3.16 µM, first compound 3.16 µM
[28] = second compound 3.16 µM, first compound 10 µM
[29] = curve of first compound, second compound 10 µM
[30] = second compound 10 µM, first compound 0.0316 µM
[31] = second compound 10 µM, first compound 0.1 µM
[32] = second compound 10 µM, first compound 0.316 µM
[33] = second compound 10 µM, first compound 1 µM
[34] = second compound 10 µM, first compound 3.16 µM
[35] = second compound 10 µM, first compound 10 µM
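Note: cells exposed to agents for seven days before viability read.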
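Throughout, for viability, T/C: 100% = DMSO vehicle control wells and lower values mean fewer viable cells.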

CC1(C)CCC(CN2CCN(c3ccc(C(=O)NS(=O)(=O)c4ccc(NCC5CCOCC5)c([N+](=O)[O-])c4)c(Oc4cnc5[nH]ccc5c4)c3)CC2)=C(c2ccc(Cl)cc2)C1 + C=CC(=O)N1CCN(c2nc(OCC3CCCN3C)nc3c2CCN(c2cccc4cccc(C)c24)C3)CC1CC#N
IC50 (curve of first compound, second compound 0.0316 µM): > 10000 nM | IC50 [1]: > 10000 nM | IC50 [2]: 8090 nM | IC50 [3]: 3050 nM | IC50 [4]: < 31.6 nM | viability, T/C (second compound 0.0316 µM, first compound 0.0316 µM): 90.7% | viability, T/C (second compound 0.0316 µM, first compound 0.1 µM): 102% | viability, T/C (second compound 0.0316 µM, first compound 0.316 µM): 113% | viability, T/C (second compound 0.0316 µM, first compound 1 µM): 94.4% | viability, T/C (second compound 0.0316 µM, first compound 3.16 µM): 88% | viability, T/C (second compound 0.0316 µM, first compound 10 µM): 56% | viability, T/C [5]: 80.3% | viability, T/C [6]: 113% | viability, T/C [7]: 85.5% | viability, T/C [8]: 86.2% | viability, T/C [9]: 96.6% | viability, T/C [10]: 61.4% | viability, T/C [11]: 102% | viability, T/C [12]: 89% | viability, T/C [13]: 87.1% | viability, T/C [14]: 126% | viability, T/C [15]: 82.1% | viability, T/C [16]: 42.7% | viability, T/C [17]: 83.7% | viability, T/C [18]: 111% | viability, T/C [19]: 90.5% | viability, T/C [20]: 100% | viability, T/C [21]: 48.4% | viability, T/C [22]: 22.1% | viability, T/C [23]: 47.6% | viability, T/C [24]: 42.6% | viability, T/C [25]: 41.9% | viability, T/C [26]: 23.2% | viability, T/C [27]: 0.96% | viability, T/C [28]: 0.77%

CC(=O)Nc1cccc(-n2c(=O)n(C3CC3)c(=O)c3c(Nc4ccc(I)cc4F)n(C)c(=O)c(C)c32)c1
viability, T/C (compound 0.0001 µM): 95.5% [middle of 5 runs] | viability, T/C (compound 0.000316 µM): 85.5% [middle of 5 runs] | viability, T/C (compound 0.00316 µM): 68.5% [middle of 5 runs] | viability, T/C (compound 0.01 µM): 54.7% [middle of 5 runs] | viability, T/C (compound 0.0316 µM): 21.5% [middle of 5 runs] | IC50 (curve of compound): 9.31 nM [middle of 5 runs]

CC1OCC2(CCN(c3cnc(Sc4ccnc(N)c4Cl)c(N)n3)CC2)C1N (stereo not drawn) + CNCc1ccccc1-c1csc(C(C)Nc2nc(C)nc3cc(OC)c(OC)cc23)c1
IC50 [1]: > 10000 nM | IC50 [2]: > 10000 nM | IC50 [3]: 392 nM | IC50 [4]: < 31.6 nM | IC50 [29]: < 31.6 nM | viability, T/C [5]: 73.8% | viability, T/C [6]: 101% | viability, T/C [7]: 66.1% | viability, T/C [8]: 82% | viability, T/C [9]: 73.3% | viability, T/C [10]: 59% | viability, T/C [11]: 92.8% | viability, T/C [12]: 90.2% | viability, T/C [13]: 68.6% | viability, T/C [14]: 60.9% | viability, T/C [15]: 66% | viability, T/C [16]: 46.5% | viability, T/C [17]: 88.9% | viability, T/C [18]: 84.1% | viability, T/C [19]: 50.8% | viability, T/C [20]: 50% | viability, T/C [21]: 50.3% | viability, T/C [22]: 34.5% | viability, T/C [23]: 0.87% | viability, T/C [24]: 0.85% | viability, T/C [25]: 1.57% | viability, T/C [26]: 2.11% | viability, T/C [27]: 0.56% | viability, T/C [28]: 3.18% | viability, T/C [30]: 1.45% | viability, T/C [31]: 3.57% | viability, T/C [32]: 0.22% | viability, T/C [33]: 0.25% | viability, T/C [34]: 0.32% | viability, T/C [35]: 5.87%

CC(C)NCC(C(=O)N1CCN(c2ncnc3c2C(C)CC3O)CC1)c1ccc(Cl)cc1 (stereo not drawn) + CC1OCC2(CCN(c3cnc(Sc4ccnc(N)c4Cl)c(N)n3)CC2)C1N
IC50 [1]: > 10000 nM | IC50 [2]: 2080 nM | IC50 [3]: 697 nM | IC50 [4]: 343 nM | IC50 [29]: 183 nM | viability, T/C [5]: 77.2% | viability, T/C [6]: 75.2% | viability, T/C [7]: 56.3% | viability, T/C [8]: 65.9% | viability, T/C [9]: 56.1% | viability, T/C [10]: 51.5% | viability, T/C [11]: 90.4% | viability, T/C [12]: 69% | viability, T/C [13]: 55.8% | viability, T/C [14]: 52.8% | viability, T/C [15]: 49.5% | viability, T/C [16]: 47.5% | viability, T/C [17]: 68% | viability, T/C [18]: 59.5% | viability, T/C [19]: 48.4% | viability, T/C [20]: 52.8% | viability, T/C [21]: 48.1% | viability, T/C [22]: 40.2% | viability, T/C [23]: 63.3% | viability, T/C [24]: 58.4% | viability, T/C [25]: 52.1% | viability, T/C [26]: 41.4% | viability, T/C [27]: 37.1% | viability, T/C [28]: 31.5% | viability, T/C [30]: 59.1% | viability, T/C [31]: 57% | viability, T/C [32]: 38.1% | viability, T/C [33]: 41.7% | viability, T/C [34]: 36.1% | viability, T/C [35]: 19.1%

COc1cc(Nc2ncc3c(n2)-c2ccc(Cl)cc2C(c2c(F)cccc2OC)=NC3)ccc1C(=O)O
viability, T/C (compound 0.1 µM): 99.8% [middle of 5 runs] | viability, T/C (compound 0.316 µM): 93.1% [middle of 5 runs] | viability, T/C (compound 1 µM): 87.7% [middle of 5 runs] | viability, T/C (compound 3.16 µM): 95.5% [middle of 5 runs] | IC50 (curve of compound): > 10000 nM

COc1cc2nc(C)nc(NC(C)c3cc(N)cc(C(F)(F)F)c3)c2cc1OC1CCOC1 (stereo not drawn)
IC50 (compound alone, run of 07/26/2021): 8.44 µM [middle of 6 runs]

CC(C)n1nc(-c2ccc3oc(N)nc3c2)c2c(N)ncnc21 + CC1OCC2(CCN(c3cnc(Sc4ccnc(N)c4Cl)c(N)n3)CC2)C1N
IC50 [1]: 67.8 nM | IC50 [2]: > 100 nM | IC50 [3]: 48.9 nM | IC50 [4]: 12.1 nM | IC50 [29]: 7.82 nM | viability, T/C (second compound 0.1 µM, first compound 0.000316 µM): 87.9% | viability, T/C (second compound 0.1 µM, first compound 0.001 µM): 104% | viability, T/C (second compound 0.1 µM, first compound 0.00316 µM): 71.9% | viability, T/C (second compound 0.1 µM, first compound 0.01 µM): 69.7% | viability, T/C [5]: 54.1% | viability, T/C [6]: 47.1% | viability, T/C (second compound 0.316 µM, first compound 0.000316 µM): 90.9% | viability, T/C (second compound 0.316 µM, first compound 0.001 µM): 81.7% | viability, T/C (second compound 0.316 µM, first compound 0.00316 µM): 67.5% | viability, T/C (second compound 0.316 µM, first compound 0.01 µM): 68.9% | viability, T/C [11]: 53.8% | viability, T/C [12]: 57.5% | viability, T/C (second compound 1 µM, first compound 0.000316 µM): 80.9% | viability, T/C (second compound 1 µM, first compound 0.001 µM): 68.1% | viability, T/C (second compound 1 µM, first compound 0.00316 µM): 77% | viability, T/C (second compound 1 µM, first compound 0.01 µM): 59.1% | viability, T/C [17]: 52.5% | viability, T/C [18]: 44.7% | viability, T/C (second compound 3.16 µM, first compound 0.000316 µM): 73.7% | viability, T/C (second compound 3.16 µM, first compound 0.001 µM): 74.5% | viability, T/C (second compound 3.16 µM, first compound 0.00316 µM): 51.6% | viability, T/C (second compound 3.16 µM, first compound 0.01 µM): 57.7% | viability, T/C [23]: 40.3% | viability, T/C [24]: 32.5% | viability, T/C (second compound 10 µM, first compound 0.000316 µM): 70.6% | viability, T/C (second compound 10 µM, first compound 0.001 µM): 66.8% | viability, T/C (second compound 10 µM, first compound 0.00316 µM): 64.4% | viability, T/C (second compound 10 µM, first compound 0.01 µM): 45.9% | viability, T/C [30]: 43.4% | viability, T/C [31]: 40.1%

CCNC(=O)CC1N=C(c2ccc(Cl)cc2)c2cc(OC)ccc2-n2c(C)nnc21 (stereo not drawn)
viability, T/C (compound 0.0316 µM): 95.8% [middle of 5 runs] | viability, T/C (compound 0.1 µM): 88.7% [middle of 5 runs] | viability, T/C (compound 0.316 µM): 68.2% [middle of 5 runs] | viability, T/C (compound 1 µM): 70.9% [middle of 5 runs] | viability, T/C (compound 3.16 µM): 71.3% [middle of 5 runs] | IC50 (curve of compound): > 10000 nM and 5560 nM

CC(C)NCC(C(=O)N1CCN(c2ncnc3c2C(C)CC3O)CC1)c1ccc(Cl)cc1 (stereo not drawn) + CNCc1ccccc1-c1csc(C(C)Nc2nc(C)nc3cc(OC)c(OC)cc23)c1
IC50 [1]: > 10000 nM | IC50 [2]: > 10000 nM | IC50 [3]: 563 nM | IC50 [4]: < 31.6 nM | IC50 [29]: < 31.6 nM | viability, T/C [5]: 77.2% | viability, T/C [6]: 69.9% | viability, T/C [7]: 79.5% | viability, T/C [8]: 78.8% | viability, T/C [9]: 66% | viability, T/C [10]: 53.6% | viability, T/C [11]: 88.3% | viability, T/C [12]: 96.1% | viability, T/C [13]: 76.4% | viability, T/C [14]: 70.6% | viability, T/C [15]: 70.4% | viability, T/C [16]: 58.6% | viability, T/C [17]: 66.9% | viability, T/C [18]: 50.1% | viability, T/C [19]: 78.5% | viability, T/C [20]: 34.9% | viability, T/C [21]: 23.9% | viability, T/C [22]: 38.2% | viability, T/C [23]: 0.57% | viability, T/C [24]: 0.54% | viability, T/C [25]: 0.43% | viability, T/C [26]: 0.58% | viability, T/C [27]: 0.56% | viability, T/C [28]: 0.49% | viability, T/C [30]: 0.2% | viability, T/C [31]: 0.22% | viability, T/C [32]: 0.18% | viability, T/C [33]: 0.2% | viability, T/C [34]: 1.04% | viability, T/C [35]: 0.31%
